{
  "source": "paper PMC7806782",
  "about": "“Tethering-induced destabilization and ATP-binding for tandem RRM domains of ALS-causing TDP-43 and hnRNPA1” (Scientific Reports, 2021)",
  "experiment_in_all_cases": "1H-15N HSQC NMR titration, one-site fit of chemical shift differences",
  "assay_type_in_all_cases": "binding",
  "key": {"[1]": {"molecular_target": "T1, isolated TDP-43 RRM2 (191–269) (Homo sapiens, UniProt Q13148)", "T1 construct": "gene TARDBP", "T1 sequence (Q13148 191-269)": "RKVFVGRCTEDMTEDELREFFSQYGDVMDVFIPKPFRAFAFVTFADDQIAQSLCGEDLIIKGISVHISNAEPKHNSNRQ", "description": "1H-15N HSQC NMR titration, one-site fit of chemical shift differences on isolated TDP-43 RRM2 (191–269) | isolated RRM2 is also able to bind ATP to induce large shifts"}, "[2]": {"molecular_target": "T2, tethered hnRNPA1 RRM1–RRM2 (5–184) (Homo sapiens, UniProt P09651)", "T2 construct": "ATP site in RRM2", "T2 sequence (P09651 5-184)": "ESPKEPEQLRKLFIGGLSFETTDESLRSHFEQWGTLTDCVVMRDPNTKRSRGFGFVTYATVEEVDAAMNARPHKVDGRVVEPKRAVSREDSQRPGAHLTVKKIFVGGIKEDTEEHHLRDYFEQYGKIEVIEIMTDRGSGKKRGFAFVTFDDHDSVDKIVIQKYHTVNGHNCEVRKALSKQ"}, "[3]": {"molecular_target": "T3, isolated hnRNPA1 RRM2 (94–184) (Homo sapiens, UniProt P09651)", "T3 construct": "printed as 90-residue", "T3 sequence (P09651 94-184)": "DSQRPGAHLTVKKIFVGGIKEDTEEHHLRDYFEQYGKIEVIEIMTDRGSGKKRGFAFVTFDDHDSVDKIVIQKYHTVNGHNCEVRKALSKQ"}},
  "data": [
    {"smiles": "Nc1ncnc2c1ncn2[C@@H]1O[C@H](COP(=O)(O)OP(=O)(O)OP(=O)(O)O)[C@@H](O)[C@H]1O", "note": "[ATP]", "values": [
      {"measurement": "Kd", "setting": "[1]", "value": "16.7 ± 0.9", "unit": "mM"},
      {"measurement": "Kd", "setting": "[2]", "value": 4.9, "unit": "mM"},
      {"measurement": "Kd", "setting": "[3]", "value": 7.7, "unit": "mM"}
    ]}
  ]
}
